Assay results as given in patent publication US5086054A, “Novel arylcycloalkanepolyalkylamines” (SRI International, priority 1990, dated 1992).
Entries after “also recorded” stand apart in the source; their conditions may differ. Structures can show the parent of a compound that is named as a salt. Where two headings read alike, the source gives them in different places.

Legend:
σ receptors = conditions: literature; cited from earlier work
α1 -ADRENOCEPTOR = assay: α1-adrenoceptor binding ([3H]-prazosin); set-up: species or system guinea-pig
Text: (§1) This example illustrates the testing of compounds of this invention in dopamine D2, 5-HT2, muscarinic acetylcholine, α1 -adrenoceptor and β-adrenoceptor receptor assays. The receptor assay methods are described in Eur. J. Pharmacol., 155:345 (1988) except that in the β-adrenoceptor assay, [^125 I]-pindolol was used instead of [^3 H] dihydroalprenolol.
(§2) In this study, guinea-pig brains were used for binding studies. Homogenization and centrifugation procedures for preparation of brain membranes for each receptor assay were the same as described in Example 4 for the σ and PCP receptors. However, brain regions, tissue contents, and buffers may differ depending on the assay. Conditions of binding assays for various receptors were as follows:
For α1 -adrenoceptor assay, [^3 H]-prazosin (0.4 nM) was incubated in a 1 ml assay (50 mM Tris-HCl, pH 7.4) for 1 hour at 23° C. with membranes from 1 mg of whole brain minus cerebellum.
(§3) Filtration and washing conditions were the same as described above for the σ receptor assay. Nonspecific binding for each receptor was defined by the inclusion of 1 μM haloperidol for dopamine D2, 1 μM haloperidol for 5-HT2, 10 μM scopolamine for muscarinic acetylcholine, 10 μM prazosin for α1 -adrenoceptor, and 0.2 μM 1-propranolol for β-adrenoceptor. Retained radioactivity was measured by liquid scintillation spectrometry except for ^125 I-pindolol which was measured by the LKB gamma counter.
(§4) Programs in Biomed. 17:107 (1983)].

MUSCARINIC ACETYLCHOLINE = assay type: binding, guinea-pig
Text: as §1, §2
For muscarinic acetylcholine assay, […]) [^3 H]-quinuclidinyl benzylate ([^3 H]-QNB) was incubated in a 2 ml assay (50 mM Tris-HCl, pH 7.4) for 2 hours at 23° C. with membranes from 2 mg of whole brain minus cerebellum.
as §3, §4

5-HT2 = 5-HT2 (Cavia porcellus, UniProt A0A286Y537); assay: 5-HT2 receptor binding; set-up: species or system guinea-pig
5-HT2, sequence (A0A286Y537 1-470): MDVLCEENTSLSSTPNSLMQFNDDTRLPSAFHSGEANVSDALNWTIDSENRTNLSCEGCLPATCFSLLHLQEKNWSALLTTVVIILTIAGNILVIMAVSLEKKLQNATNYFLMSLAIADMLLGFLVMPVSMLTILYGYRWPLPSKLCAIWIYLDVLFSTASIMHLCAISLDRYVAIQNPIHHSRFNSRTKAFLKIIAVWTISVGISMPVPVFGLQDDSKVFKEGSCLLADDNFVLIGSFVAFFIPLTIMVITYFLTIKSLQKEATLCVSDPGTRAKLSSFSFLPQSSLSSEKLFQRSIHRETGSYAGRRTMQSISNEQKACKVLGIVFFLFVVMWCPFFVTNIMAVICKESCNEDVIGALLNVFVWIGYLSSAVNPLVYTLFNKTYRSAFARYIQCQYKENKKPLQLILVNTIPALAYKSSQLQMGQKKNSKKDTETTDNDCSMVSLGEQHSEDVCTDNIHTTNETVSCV
Text: as §1, §2, §3, §4

β-ADRENOCEPTOR = assay: β-adrenoceptor binding ([125I]-pindolol); set-up: species or system guinea-pig
Text: as §1, §2
For β-adrenoceptor, [^125 I]-pindolol (0.05 nM) was incubated in a 1 ml assay (50 mM Tris-HCl, pH 7.4) for 1 hr at 23° C. with membranes from 1 mg of whole brain minus cerebellum.
as §3, §4

PCP RECEPTOR = assay: PCP receptor binding assay ([3H]-TCP displacement, brain membranes); set-up: species or system guinea-pig (male Hartley)
Experimental: (§5) This example illustrates testing of compounds in receptor binding assays.
(§6) Frozen brains from male Hartley guinea-pigs were obtained from Pel-Freeze (Rogers, Arkansas).
(§7) The brains plus cerebella were homogenized in 10 volumes (v/w) of 0.1M, pH 7.4, ice-cold Tris-HCl buffer with a Brinkmann polytron at setting 4 for 20 seconds. The homogenates were centrifuged at 20,000×g for 20 minutes at 4° C. The pellets were suspended in 10 volumes of ice-cold water and, after sitting on ice for 10 minutes, were centrifuged 30 minutes at 20,000×g at 4° C. The resulting pellets were resuspended in the above Tris buffer in ratio 1:100 (w/v) for σ receptor assays or in 5 mM Tris-HCl having pH 7.4, for PCP receptor assays. The final suspension was homogenized with a dounce glass-glass tissue grinder Wheaton "200", at small clearance (B), with three strokes before use. Two milliter aliquots of the brain membrane preparation, containing 1.7 mg of protein, were incubated in quadruplicate for one hour at 23° C. with competing mixture of ligand and radioligand. For σ receptors, [^3 H]-d-SKF-10,047, 2 nM was used. For PCP receptors, [^3 H] TCP [^3 H]-1-[1-(2-thienyl)cyclohexyl]piperidine), 1 nM was used. The nonspecific bindings were defined by 0.1 mM d-SKF-10,047 and 0.1 mM phencyclidine respectively for σ and PCP receptors. After incubation, free ligand was separated from bound ligand by rapid filtration through Whatman GF/C filters. The filters had been soaked before use in isoamyl alcohol-saturated water to prevent nonspecific [^3 H]-d-SKF-10,047 binding to the filter. In the PCP receptor assay, the filter was soaked in 0.5% polyethylenimine to reduce the filter binding of [^3 H]-TCP. After filtration, the trapped tissue was washed three times with 4 ml aliquots of 0.1 M ice-cold Tris buffer at pH 7.4 for σ receptors and 5 mM, ice-cold Tris buffer pH 7.4 for PCP receptors. The filters were transferred to 5 ml of liquid scintillation fluid and the retained radioactivity was measured by liquid scintillation spectrometry.
as §4

SIGMA RECEPTOR = target: T1, SIGMA RECEPTOR (Cavia porcellus, UniProt Q60492); assay: Sigma receptor binding assay ([3H]-d-SKF-10,047 displacement, brain membranes); set-up: species or system guinea-pig (male Hartley)
T1 construct: Two milliter aliquots of the brain membrane preparation, containing 1.7 mg of protein; tissue Pel-Freeze (Rogers, Arkansas); host or cells: guinea-pig brains plus cerebella, membranes
T1 sequence (Q60492 whole entry): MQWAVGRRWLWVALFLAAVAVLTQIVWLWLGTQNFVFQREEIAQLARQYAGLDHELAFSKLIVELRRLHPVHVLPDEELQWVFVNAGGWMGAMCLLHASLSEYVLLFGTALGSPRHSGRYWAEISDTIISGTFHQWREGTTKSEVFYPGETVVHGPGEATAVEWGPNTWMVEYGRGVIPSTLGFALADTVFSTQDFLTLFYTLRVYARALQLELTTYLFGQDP
Experimental: as §5, §6, §7

[1] = Table 1, mean ± error (n), read-out: PCP RECEPTOR IC50
[2] = Table 1, slope of dose response curve
[3] = SIGMA RECEPTOR IC50, Table 1, mean ± error (n)
[4] = Table 3, cycloalkyl ring size, read-out: PCP RECEPTOR IC50
[5] = Table 3, cycloalkyl ring size, read-out: SIGMA RECEPTOR IC50
[6] = Table 2, aryl ring substituents, read-out: PCP RECEPTOR IC50
[7] = Table 1, mean ± error (n), read-out: SIGMA RECEPTOR IC50
[8] = Table 2, aryl ring substituents, read-out: SIGMA RECEPTOR IC50

CCCN1CCC[C@H](c2cccc(O)c2)C1 [(+)-3-PPP, (+)-3-(3-hydroxyphenyl)-N-(1-propyl)piperidine]
affinity / binding at σ receptors (in words) (σ receptors): bind to σ receptors

CC(C)=CCN1CCC2(C)c3cc(O)ccc3CC1C2C (stereo not drawn) [pentazocine, 2-dimethylallyl-5,9-dimethyl-2-hydroxy-benzomorphan]
affinity / binding at σ receptors (in words) (σ receptors): bind to σ receptors

CC1C2Cc3ccc(O)cc3C1(C)CCN2CC1CC1 (stereo not drawn) [cyclazocine, 3-(cyclopropylmethyl)-1,2,3,4,5,6-hexahydro-6,11-dimethyl-2,6-methano-3-benzazocin-8-ol]
affinity / binding at σ receptors (in words) (σ receptors): bind to σ receptors

C=CCN1CCC2(C)c3cc(O)ccc3CC1C2C (stereo not drawn) [N-allylnormetazocine]
affinity / binding at σ receptors (in words) (σ receptors): bind to σ receptors

O=C(OCCN1CCOCC1)C1(c2ccccc2)CCCCC1 [Compound 12, 2-(4-Morpholino)ethyl 1-phenylcyclohexane-1-carboxylate hydrochloride]
IC50 (α1 -ADRENOCEPTOR; Table 4, IC50 and nM only stated in text, read-out: α1 -ADRENOCEPTOR): > 100000 nM | IC50 (α1 -ADRENOCEPTOR; read-out: potency for α1-adrenoceptor): > 100000 nM | IC50 (MUSCARINIC ACETYLCHOLINE; Table 4, IC50 and nM only stated in text, read-out: MUSCARINIC ACETYLCHOLINE): 14000 nM | IC50 (MUSCARINIC ACETYLCHOLINE; read-out: potency (IC50) at muscarinic acetylcholine receptor): 14000 nM | more potent at σ receptors than at muscarinic acetylcholine receptors (MUSCARINIC ACETYLCHOLINE; selectivity σ vs muscarinic): at least 300 fold | IC50 (5-HT2; Table 4, IC50 and nM only stated in text, read-out: 5-HT2): 18700 nM | IC50 (5-HT2; read-out: potency for 5-HT2): 18700 nM | more potent at σ receptors than at 5-HT2 receptors (5-HT2; selectivity σ vs 5-HT2): ≥ 400 fold | IC50 (β-ADRENOCEPTOR; Table 4, IC50 and nM only stated in text, read-out: β-ADRENOCEPTOR): > 200000 nM | IC50 (β-ADRENOCEPTOR; read-out: potency for β-adrenoceptor): > 200000 nM | IC50 (PCP RECEPTOR; [1]): > 100000 nM | IC50 (PCP RECEPTOR; Table 4, IC50 and nM only stated in text, read-out: PCP): > 100000 nM | potency at PCP receptors (in words) (PCP RECEPTOR; hydrochloride): inactive in the PCP assay; also recorded: very weak or inactive in the PCP assay; also recorded: negligible; also recorded: low potency at PCP receptors; also recorded: relative inactivity | IC50 (PCP RECEPTOR; read-out: IC50 / potency for PCP receptors): < 100000 nM | SIGMA RECEPTOR SLOPE (SIGMA RECEPTOR; [2]): 0.48 ± 0.05 | potency at σ receptors (in words) (SIGMA RECEPTOR; hydrochloride): σ receptor potency increased; also recorded: very potent in the σ assay; also recorded: very high | σ potency compared with other known σ ligands (in words) (SIGMA RECEPTOR; vs haloperidol, DTG, (+)-3-PPP, hydrochloride): not as great as other known σ ligands, such as for example haloperidol; also recorded: comparable to other σ ligands such a DTG and (+)-3-PPP

CCN(CC)C1(c2ccccc2)CCCCC1 [Compound 13, N,N-diethyl-1-phenylcyclohexylamine, reference compound]
IC50 (PCP RECEPTOR; [1]): 331 ± 34 nM | IC50 (SIGMA RECEPTOR; [3]): 0.573 µM | SIGMA RECEPTOR SLOPE (SIGMA RECEPTOR; [2]): 0.40 ± 0.07

c1ccc(C2(N3CCOCC3)CCCCC2)cc1 [Compound 10, 4-(1-phenylcyclohexyl)morpholine, reference compound]
IC50 (PCP RECEPTOR; [1]): 633 ± 71 nM | IC50 (SIGMA RECEPTOR; [3]): 2.53 µM | SIGMA RECEPTOR SLOPE (SIGMA RECEPTOR; [2]): 0.47 ± 0.02

c1ccc(C2(CN3CCCCC3)CC2)cc1 [Compound 45]
IC50 (PCP RECEPTOR; [4]): 8840 nM | SIGMA RECEPTOR SLOPE (SIGMA RECEPTOR; Table 3): 0.83 ± 0.19 | IC50 (SIGMA RECEPTOR; [5]): 5.59 µM

C=CCN1CC[C@@]23CCCC[C@@H]2[C@@H]1Cc1ccc(O)cc13 [dextrallorphan]
affinity / binding at σ receptors (in words) (σ receptors): bind to σ receptors

c1ccc(C2(CN3CCCCC3)CCCC2)cc1 [Compound 44]
IC50 (PCP RECEPTOR; [4]): > 25000 nM | SIGMA RECEPTOR SLOPE (SIGMA RECEPTOR; Table 3): 1.03 ± 0.04 | IC50 (SIGMA RECEPTOR; [5]): 0.995 µM

c1ccc(C2(N3CCCC3)CCCCC2)cc1 [Compound 5, 1-(1-phenylcyclohexyl)pyrrolidine, reference compound]
IC50 (PCP RECEPTOR; [1]): 110 ± 6 nM | IC50 (SIGMA RECEPTOR; [3]): 7.73 µM | SIGMA RECEPTOR SLOPE (SIGMA RECEPTOR; [2]): 0.83 ± 0.06

O=C(OCCN1CCCC1)C1(c2ccccc2)CC1 [Compound 47, 2-(1-Pyrrolidino)ethyl 1-Phenylcyclopropane-1-carboxylate hydrochloride]
IC50 (PCP RECEPTOR; [4]): > 25000 nM | SIGMA RECEPTOR SLOPE (SIGMA RECEPTOR; Table 3): 0.78 ± 0.09 | IC50 (SIGMA RECEPTOR; [5]): 1.46 µM

CCN(CC)CC1(c2ccccc2)CCCCC1 [Compound 14]
potency at PCP receptors (in words) (PCP RECEPTOR): inactive in the PCP receptor assay | IC50 (PCP RECEPTOR; [1]): > 25000 nM | IC50 (PCP RECEPTOR; [6]): > 25000 nM | potency at σ receptors (in words) (SIGMA RECEPTOR): increased potency for σ receptors | IC50 (SIGMA RECEPTOR; [7]): 0.208 µM | SIGMA RECEPTOR SLOPE (SIGMA RECEPTOR; [2]): 0.66 ± 0.17 | SIGMA RECEPTOR SLOPE (SIGMA RECEPTOR; Table 2): 0.66 ± 0.17

Clc1cccc(C2(CN3CCCCC3)CCCCC2)c1 [Compound 25]
potency at PCP receptors (in words) (PCP RECEPTOR): showed some potency at PCP receptors | IC50 (PCP RECEPTOR; [6]): 1830 nM | potency at σ receptors (in words) (SIGMA RECEPTOR): most potent at σ receptors | selectivity for σ receptors (in words) (SIGMA RECEPTOR): least specific | SIGMA RECEPTOR SLOPE (SIGMA RECEPTOR; Table 2): 0.69 ± 0.05 | IC50 (SIGMA RECEPTOR; read-out: IC50 at σ receptors): 0.071 µM

COc1cccc(C2(CN(C)C)CCCCC2)c1 [Compound 42]
IC50 (PCP RECEPTOR; [6]): > 25000 nM | SIGMA RECEPTOR SLOPE (SIGMA RECEPTOR; Table 2): 0.70 ± 0.06 | IC50 (SIGMA RECEPTOR; [8]): 2.85 µM

Cc1ccc(C2(CN3CCCCC3)CCCCC2)cc1 [Compound 23]
IC50 (PCP RECEPTOR; [6]): > 25000 nM | potency at σ receptors (in words) (SIGMA RECEPTOR): slightly lower σ receptor potencies | selectivity for σ receptors (in words) (SIGMA RECEPTOR): substantially increases selectivity for σ receptors | SIGMA RECEPTOR SLOPE (SIGMA RECEPTOR; Table 2): 0.69 ± 0.01 | IC50 (SIGMA RECEPTOR; [8]): 0.223 µM

C[N+]1(CCOC(=O)C2(c3ccccc3)CCCCC2)CCCC1 [Compound 9]
potency at PCP receptors (in words) (PCP RECEPTOR): inactive in the PCP assay; also recorded: did not increase potency for PCP receptors | IC50 (PCP RECEPTOR; [1]): > 25000 nM | potency at σ receptors (in words) (SIGMA RECEPTOR): σ receptor potency increased; also recorded: effectively reversed the potency for σ receptors | IC50 (SIGMA RECEPTOR; [7]): 0.242 µM | SIGMA RECEPTOR SLOPE (SIGMA RECEPTOR; [2]): 0.62 ± 0.18
